Literature values, collected in article PMC3530638 (Biochimica et biophysica acta, 2012).

Test system: B. anthracis
Settings: cited from earlier work

In the case of `CCCC1c2ccccc2C=NN1C(=O)/C=C/c1cc(Cc2cnc(N)nc2N)cc(OC)c1OC` (stereo not shown) [n-propyl, (E)-3-[5-(2,4-diaminopyrimidin-5-ylmethyl)-2,3-dimethoxyphenyl]-1-(1-propyl-1h-phthalazin-2-yl)propenone], the MIC is given as 1 to 3 µg/mL.
